Experimental findings from patent US9663496B2, “AMPK-activating heterocyclic compounds and methods for using the same” (Rigel Pharmaceuticals, Inc., priority 2010, dated 2017) are described below.

Structures are written as SMILES.

In this test the target is AMPK. The test is described as follows: AMPK activation, enzyme-linked immunosorbent assay. The class given is biochemical. To be noted: EC50 for AMPK activation, ELISA. The protocol: Compounds were assayed for their ability to activate AMPK using an enzyme-linked immunosorbent assay. Reagents and procedures for measuring AMPK activation are well known and kits for AMPK activation assays are commercially available.
A general note: ELISA stands for enzyme-linked immunosorbent assay.
Broadly, the EC50 is the concentration needed to bring the measured effect to its halfway point. A lower EC50 goes with an effect from little substance. For the molecule `N#Cc1ccc(CN2CCC(NC(=O)c3ccc(C(=O)N4CC[C@H](Oc5ccc(F)cc5)C4)cn3)CC2)cc1` [Compound 270, (S)—N-(1-(4-cyanobenzyl)piperidin-4-yl)-5-(3-(4-fluorophenoxy)pyrrolidine-1-carbonyl)picolinamide], the 50% effective concentration (EC50) is below 500 nM.

In the case of `N#Cc1ccc(CN2CCC(NC(=O)c3ccc(C(=O)N4CCC(S(=O)(=O)c5ccc(F)cc5)CC4)cn3)CC2)cc1` [Compound 262, N-(1-(4-cyanobenzyl)piperidin-4-yl)-5-(4-(4-fluorophenylsulfonyl)piperidine-1-carbonyl)picolinamide], the EC50 was below 500 nM.

In the case of `N#Cc1ccc(CN2CCC(NC(=O)c3ccc(N4CCCC(Oc5ccc(C#N)cc5)C4)cn3)CC2)cc1` (centres unmarked) [Compound 265, N-(1-(4-cyanobenzyl)piperidin-4-yl)-5-(3-(4-cyanophenoxy)piperidin-1-yl)picolinamide], the EC50 is 1000 to 5000 nM.

Molecule `CC(=O)Nc1cccc(OC2CCN(C(=O)c3ccc(C(=O)NC4CCN(Cc5ccc(F)cc5)CC4)cn3)CC2)c1` [Compound 413, 6-(4-(3-acetamidophenoxy)piperidine-1-carbonyl)-N-(1-(4-fluorobenzyl)piperidin-4-yl)nicotinamide] yielded an EC50 of 1000 to 5000 nM.

`N#Cc1ccc(OC2CCN(C(=O)c3ccc(C(=O)NC4CCN(Cc5cc(F)cc(F)c5)CC4)nc3)CC2)cc1` [Compound 289, 5-(4-(4-cyanophenoxy)piperidine-1-carbonyl)-N-(1-(3,5-difluorobenzyl)piperidin-4-yl)picolinamide]: the concentration giving a half-maximal response (EC50) is below 500 nM.

`CC(=O)Nc1ccc(OC2CCN(C(=O)c3ccc(C(=O)NC4CCN(Cc5cccc(OC(F)(F)F)c5)CC4)cn3)CC2)cc1` [Compound 428, 6-(4-(4-acetamidophenoxy)piperidine-1-carbonyl)-N-(1-(3-(trifluoromethoxy)benzyl)piperidin-4-yl)nicotinamide]: the concentration for a half-maximal effect (EC50) is 500 to 1000 nM.

With `N#Cc1ccc(CN2CCC(NC(=O)c3ccc(C(=O)N4CCC(Oc5ccc(SC(F)(F)F)cc5)CC4)cn3)CC2)cc1` [Compound 410, N-(1-(4-cyanobenzyl)piperidin-4-yl)-5-(4-(4-(trifluoromethylthio)phenoxy)piperidine-1-carbonyl)picolinamide], the concentration for a half-maximal effect (EC50) is below 500 nM.

Regarding `CS(=O)(=O)c1ccc(C(=O)C2CCN(C(=O)c3ccc(C(=O)NC4CCN(Cc5ccc(N6CCCC6)cc5)CC4)cn3)CC2)cc1` [Compound 229, 6-(4-(4-(methylsulfonyl)benzoyl)piperidine-1-carbonyl)-N-(1-(4-(pyrrolidin-1-yl)benzyl)piperidin-4-yl)nicotinamide], the EC50 lay within 1000 to 5000 nM.

The molecule `COc1ccc(C(=O)C2CCN(C(=O)c3ccc(C(=O)N[C@@H]4CCN(Cc5ccc(C#N)cc5)C[C@H]4F)cn3)CC2)cc1` (relative stereo) [Compound 349, N-((trans)-1-(4-cyanobenzyl)-3-fluoropiperidin-4-yl)-6-(4-(4-methoxybenzoyl)piperidine-1-carbonyl)nicotinamide] had an EC50 below 500 nM.

In turn, `COc1ccc(C(=O)C2CCN(C(=O)c3cnc(C(=O)Nc4ccc(Oc5ccc(F)cc5)nc4)cn3)CC2)cc1` [Compound 204, N-(6-(4-fluorophenoxy)pyridin-3-yl)-5-(4-(4-methoxybenzoyl)piperidine-1-carbonyl)pyrazine-2-carboxamide] registered a concentration for a half-maximal effect (EC50) below 500 nM.

`N#Cc1ccc(CN2CCC(NC(=O)c3ccc(C(=O)N4CCN(Cc5ccncc5)CC4)cn3)CC2)cc1` [Compound 103, N-(1-(4-cyanobenzyl)piperidin-4-yl)-5-(4-(pyridin-4-ylmethyl)piperazine-1-carbonyl)picolinamide] registered an EC50 below 500 nM.

The molecule `COc1ccc(C(=O)C2CCN(C(=O)c3ccc(C(=O)NCCOc4ccc(F)cc4)nc3)CC2)cc1` [Compound 305, N-(2-(4-fluorophenoxy)ethyl)-5-(4-(4-methoxybenzoyl)piperidine-1-carbonyl)picolinamide] returned an EC50 below 500 nM.

`CN1CCN(c2ccc(C(=O)C3CCN(C(=O)c4ccc(C(=O)Nc5ccc(Oc6ccc(F)cc6)nc5)cn4)CC3)cc2)CC1` [Compound 245, N-(6-(4-fluorophenoxy)pyridin-3-yl)-6-(4-(4-(4-methylpiperazin-1-yl)benzoyl)piperidine-1-carbonyl)nicotinamide] showed a half-maximal effective concentration (EC50) below 500 nM.

Molecule `CS(=O)(=O)c1ccc(OC2CCN(C(=O)c3ccc(C(=O)Nc4ccc(Oc5ccc(C#N)cc5)nc4)cn3)CC2)cc1` [Compound 459, N-(6-(4-cyanophenoxy)pyridin-3-yl)-6-(4-(4-(methylsulfonyl)phenoxy)piperidine-1-carbonyl)nicotinamide] returned an EC50 below 500 nM.

As for `COc1ccc(C(=O)C2CCN(C(=O)c3ccc(C(=O)Nc4ccc(Oc5ccc(C(C)=O)cc5)nc4)cn3)CC2)cc1` [Compound 462, N-(6-(4-acetylphenoxy)pyridin-3-yl)-6-(4-(4-methoxybenzoyl)piperidine-1-carbonyl)nicotinamide], the EC50 was below 500 nM.

As for `O=C(Nc1ccc(Oc2ccc(F)cc2)nc1)c1ccc(C(=O)N2CCC(Oc3ccc(F)cc3)CC2)cn1` [Compound 273, 5-(4-(4-fluorophenoxy)piperidine-1-carbonyl)-N-(6-(4-fluorophenoxy)pyridin-3-yl)picolinamide], the half-maximal effective concentration (EC50) was below 500 nM.

For `N#Cc1ccc(CN2CCC(NC(=O)c3ccc(C(=O)N4CCC(Oc5ccc(C(=O)C6CC6)cc5)CC4)nc3)CC2)cc1` [Compound 456, N-(1-(4-cyanobenzyl)piperidin-4-yl)-6-(4-(4-(cyclopropanecarbonyl)phenoxy)piperidine-1-carbonyl)nicotinamide], the EC50 was below 500 nM.

For `CC(=O)c1ccc(OC2CCN(C(=O)c3ccc(C(=O)NC4CCN(Cc5ccc(C#N)cc5)CC4)nc3)CC2)cc1` [Compound 358, 5-(4-(4-acetylphenoxy)piperidine-1-carbonyl)-N-(1-(4-cyanobenzyl)piperidin-4-yl)picolinamide], the EC50 was below 500 nM.

As for `O=C(NC1CCN(Cc2ccc(Cl)cc2)CC1)c1ccc(C(=O)N2CCN(Cc3ccc(F)cc3)CC2)cn1` [Compound 52, N-(1-(4-chlorobenzyl)piperidin-4-yl)-5-(4-(4-fluorobenzyl)piperazine-1-carbonyl)picolinamide], the concentration giving a half-maximal response (EC50) is below 500 nM.

In the case of `CCS(=O)(=O)c1ccc(C(=O)C2CCN(C(=O)c3ccc(C(=O)NC4CCN(Cc5ccc(C#N)cc5)CC4)nc3)CC2)cc1` [Compound 260, N-(1-(4-cyanobenzyl)piperidin-4-yl)-5-(4-(4-(ethylsulfonyl)benzoyl)piperidine-1-carbonyl)picolinamide], the EC50 is below 500 nM.

On to `N#Cc1ccc(CN2CCC(NC(=O)c3ccc(C(=O)N4CCC(Cc5ccc(F)cc5)CC4)cn3)CC2)cc1` [Compound 130, N-(1-(4-cyanobenzyl)piperidin-4-yl)-5-(4-(4-fluorobenzyl)piperidine-1-carbonyl)picolinamide], for which the EC50 is below 500 nM.

`O=C(NC1CCN(Cc2ccc(N3CCCC3)cc2)CC1)c1ccc(C(=O)N2CCC(C(=O)c3ccc(N4CCCC4)cc3)CC2)nc1` [Compound 444, 6-(4-(4-(pyrrolidin-1-yl)benzoyl)piperidine-1-carbonyl)-N-(1-(4-(pyrrolidin-1-yl)benzyl)piperidin-4-yl)nicotinamide]: the 50% effective concentration (EC50) is below 500 nM.

`COc1ccc(CC2CCN(C(=O)c3ccc(C(=O)NC4CCN(Cc5ccc(C#N)cc5)CC4)nc3)CC2)cc1` [Compound 131, N-(1-(4-cyanobenzyl)piperidin-4-yl)-5-(4-(4-methoxybenzyl)piperidine-1-carbonyl)picolinamide] yielded an EC50 below 500 nM.

The molecule `N#Cc1ccc(O[C@H]2CC[C@@H](NC(=O)c3ccc(C(=O)N4CCC(C(=O)c5ccc(F)cc5)CC4)cn3)CC2)cc1` [Compound 151] had a concentration giving a half-maximal response (EC50) below 500 nM.

As to `O=C(Nc1ccc(Oc2ccc(F)cc2)nc1)c1cnc(C(=O)N2CCC(Oc3ccc(C(F)(F)F)cc3)CC2)cn1` [Compound 205, N-(6-(4-fluorophenoxy)pyridin-3-yl)-5-(4-(4-(trifluoromethyl)phenoxy)piperidine-1-carbonyl)pyrazine-2-carboxamide], the 50% effective concentration (EC50) was below 500 nM.

For `N#Cc1ccc(Oc2ccc(NC(=O)c3ccc(C(=O)N4CCN(Cc5ccc(F)cc5)CC4)nc3)cn2)cc1` [Compound 476, N-(6-(4-cyanophenoxy)pyridin-3-yl)-6-(4-(4-fluorobenzyl)piperazine-1-carbonyl)nicotinamide], the EC50 was below 500 nM.

`N#Cc1ccc(CN2CCC(NC(=O)c3ccc(N4CCC(Oc5ccc(C(F)(F)F)cc5)CC4)cn3)CC2)cc1` [Compound 301, N-(1-(4-cyanobenzyl)piperidin-4-yl)-5-(4-(4-(trifluoromethyl)phenoxy)piperidin-1-yl)picolinamide] displayed an EC50 below 500 nM.

`O=C(Nc1ccc(Oc2ccc(F)cc2)nc1)c1ccc(C(=O)N2CCC(C(=O)c3ccc(N4CCCC4)cc3)CC2)cn1` [Compound 368, N-(6-(4-fluorophenoxy)pyridin-3-yl)-5-(4-(4-(pyrrolidin-1-yl)benzoyl)piperidine-1-carbonyl)picolinamide] yielded a 50% effective concentration (EC50) below 500 nM.

`N#Cc1ccc(OC2CCN(C(=O)c3ccc(C(=O)NC4CCN(c5ccc(C#N)cc5)CC4)cn3)CC2)cc1` [Compound 418, 6-(4-(4-cyanophenoxy)piperidine-1-carbonyl)-N-(1-(4-cyanophenyl)piperidin-4-yl)nicotinamide] yielded an EC50 below 500 nM.

As for `COc1ccc(CC2CCN(C(=O)c3ccc(C(=O)NC4CCN(Cc5ccc(C#N)cc5)CC4)nc3)CC2)cc1F` [Compound 146, N-(1-(4-cyanobenzyl)piperidin-4-yl)-5-(4-(3-fluoro-4-methoxybenzyl)piperidine-1-carbonyl)picolinamide], the EC50 is below 500 nM.

With `N#Cc1ccc(CN2CCC(NC(=O)c3ccc(N4CCC(Oc5ccc(C#N)cc5)CC4)cn3)CC2)cc1` [Compound 165, N-(1-(4-cyanobenzyl)piperidin-4-yl)-5-(4-(4-cyanophenoxy)piperidin-1-yl)picolinamide], the EC50 was below 500 nM.

Consider `CC(=O)c1ccc(Oc2ccc(NC(=O)c3ccc(C(=O)N4CCC(Oc5ccc(S(C)(=O)=O)cc5)CC4)nc3)cn2)cc1` [Compound 485, N-(6-(4-acetylphenoxy)pyridin-3-yl)-6-(4-(4-(methylsulfonyl)phenoxy)piperidine-1-carbonyl)nicotinamide], for which the concentration giving a half-maximal response (EC50) was below 500 nM.
